{
  "source": "patent US12622947B2",
  "about": "“Pharmaceutical composition for treating levodopa-induced dyskinesia or for suppressing progression thereof” (PEPTRON, INC., priority 2019, dated 2026)",
  "origin": "cited, not measured here",
  "key": {"[1]": {"conditions": "in vivo"}, "[2]": {"conditions": "compared to GLP-1-Tf (Martin et al., 2012)"}, "MPTP mouse model": {"system": "MPTP mouse model", "conditions": "given daily for 7 days after treatment (Liu et al., 2015)"}},
  "data": [
    {"substance": "Exendin-4", "values": [
      {"measurement": "crossing the BBB / entry into the brain from blood", "setting": "[1]", "value": "enter the brain from blood although its entry speed is limited"},
      {"measurement": "rotarod performance", "setting": "[2]", "value": "improve rotarod performance"},
      {"measurement": "neuro-protection", "setting": "MPTP mouse model", "value": "not effective"}
    ]}
  ]
}
